Data on one molecule can be found in PMC11678425, “(-)-Syringaresinol Exerts an Antidepressant-like Activity in Mice by Noncompetitive Inhibition of the Serotonin Transporter” (Pharmaceuticals, 2024).

Data set [1] addresses T1, hSERT I327A (Homo sapiens, UniProt P31645, I327A).
T1 construct: forward and reverse primers were used to amplify a full-length hSERT; expressed in transfected cells; host or cells: HeLa cells, transient, pcDNA3.1
Description: ASP^+ binding, hSERT I327A. The following applies: S2 site mutant, read-out: SYR IC50 for Binding.

Data set [2] concerns the target T2, hSERT P560G (Homo sapiens, UniProt P31645, P560G).
T2 construct: forward and reverse primers were used to amplify a full-length hSERT; expressed in transfected cells; host or cells: HeLa cells, transient, pcDNA3.1
Nature of the data set: ASP^+ binding, hSERT P560G. The conditions noted are these: S2 site mutant, read-out: SYR IC50 for Binding.

The test system of data set [3] is BDNF, PSD-95, GluA1, and vGluT1. Description: Immunoblot of synaptic proteins in hippocampus of CUMS mice. It counts as in vivo, mouse. The conditions noted are these: same dosage as fluoxetine (10 mg/kg i.p.). An excerpt:
Figure 8 SYR effects on the expression of c-Fos and synaptic proteins in the hippocampus. (A) Representative immunohistochemical images of c-Fos expression in the hippocampus with the indicated treatments. (B) Quantitative analysis for hippocampal c-Fos expression with various treatments. Protein expression level is expressed as a percentage of c-Fos fluorescence measured in the control group. Bars represent the mean ± SEM (n = 4). ** p < 0.01 compared with the control or CUMS group by one-way ANOVA followed by post hoc tests. (C) Representative immunoblots of the synaptic proteins BDNF, PSD-95, GluA1, and vGluT1 with various treatments. (D–G) Quantification of the expression of synaptic proteins BDNF (D), PSD-95 (E), GluA1 (F), and vGluT1 (G). The expression level is expressed as a percentage of the integrated density obtained from the control group. Bars represent the mean ± SEM (n = 4). * p < 0.05, ** p < 0.01 by one-way ANOVA followed by post hoc tests.
Synaptic proteins were extracted from mPFC or hippocampus tissues using RIPA lysis buffer, respectively. Expression of the indicated proteins under various treatments was then analyzed by immunoblotting, as previously reported. […] Quantification of immunoreactive protein bands was performed using Image J v1.53u, and GAPDH was used as an internal reference to normalize expression levels of those proteins, respectively.
On the technique in general: A western blot detects proteins with antibodies after separation by electrophoresis.

The target of data set [4] is T3, hSERT WT (Homo sapiens, UniProt P31645).
T3 construct: forward and reverse primers were used to amplify a full-length hSERT; expressed in transfected cells; host or cells: HeLa cells (CCL-2), transient, pcDNA3.1
Description: APP^+ uptake, hSERT WT. In kind it is cell-based.

The subject of data set [5] is CUMS mice. The conditions noted are these: all tested dosages, i.p.
Data set [6] has as its target T4, hSERT S559A (Homo sapiens, UniProt P31645, S559A).
T4 construct: forward and reverse primers were used to amplify a full-length hSERT; expressed in transfected cells; host or cells: HeLa cells, transient, pcDNA3.1
Nature of the data set: APP^+ uptake, hSERT S559A. It counts as cell-based. The conditions noted are these: S2 site mutant, read-out: SYR IC50 for Transport.

The target of data set [7] is hSERT (Homo sapiens, UniProt P31645). In kind it is cell-based. Also on record: forward and reverse primers were used to amplify a full-length hSERT; expressed in transfected cells; host or cells: HeLa.
Data set [8] has as its target T5, hSERT G498T (Homo sapiens, UniProt P31645, G498T).
T5 construct: forward and reverse primers were used to amplify a full-length hSERT; expressed in transfected cells; host or cells: HeLa cells, transient, pcDNA3.1
Nature of the data set: APP^+ uptake, hSERT G498T. It counts as cell-based. The following applies: S2 site mutant, read-out: SYR IC50 for Transport.

Data set [9] has as its system CUMS mice. Description: Novelty suppressed feeding test (NSFT) in CUMS mice. It counts as in vivo, mouse. Here is the method:
C57BL/6 adult (6–8 weeks, body weight, 18–22 g) male mice were maintained and handled in a standard condition at the Experimental Animal Center of Southern Medical University (Guangzhou, China). Animal use was approved by the Animal Use and Care Committee of Southern Medical University (approved code: SMUL2021177, approved date: 12 December 2021). The CUMS procedure was carried out according to a protocol described previously. Except for those in the control group, mice were randomly exposed to two mild unpredictable stressors per day for 3 weeks. The stressors included water deprivation, restraint, tilted cage, wet/no bedding, rotation, peppermint, noise, and inverted light off/on. Mice in the control group were group housed without any stressors throughout the procedure. […] NSFT was performed after 16 h food deprivation, as described previously. The mouse was placed in an open field (24 × 40 × 14 cm), where a new chow was put in the center, and the latency time to bite food was counted over 10 min. Home cage feeding within a 20 min period was measured after the test. FST was carried out according to a protocol described previously. The mouse was placed into a beaker (Bomex, Beijing, China) with a height of 18 cm filled with water (22 ± 1 °C) for 6 min. The immobile time was measured during minutes 2–6. TST was performed according to a previous description. The mouse was suspended from a hook that hung from a suspension bar by placing a piece of adhesive tape on its tail about 1 cm away from the tip. The immobile time during minutes 2–6 was measured.

The target of data set [10] is T6, hSERT L565A (Homo sapiens, UniProt P31645, L565A).
T6 construct: forward and reverse primers were used to amplify a full-length hSERT; expressed in transfected cells; host or cells: HeLa
Description: ASP^+ binding, hSERT L565A. The conditions noted are these: S2 site mutant, read-out: SYR IC50 for Binding.

For data set [11], the target named is T7, hSERT R564A (Homo sapiens, UniProt P31645, R564A).
T7 construct: forward and reverse primers were used to amplify a full-length hSERT; expressed in transfected cells; host or cells: HeLa
Nature of the data set: ASP^+ binding, hSERT R564A. The following applies: S2 site mutant, read-out: SYR IC50 for Binding.

The term IC50 denotes the concentration that inhibits the measured activity by half.

T3 sequence (P31645 whole entry): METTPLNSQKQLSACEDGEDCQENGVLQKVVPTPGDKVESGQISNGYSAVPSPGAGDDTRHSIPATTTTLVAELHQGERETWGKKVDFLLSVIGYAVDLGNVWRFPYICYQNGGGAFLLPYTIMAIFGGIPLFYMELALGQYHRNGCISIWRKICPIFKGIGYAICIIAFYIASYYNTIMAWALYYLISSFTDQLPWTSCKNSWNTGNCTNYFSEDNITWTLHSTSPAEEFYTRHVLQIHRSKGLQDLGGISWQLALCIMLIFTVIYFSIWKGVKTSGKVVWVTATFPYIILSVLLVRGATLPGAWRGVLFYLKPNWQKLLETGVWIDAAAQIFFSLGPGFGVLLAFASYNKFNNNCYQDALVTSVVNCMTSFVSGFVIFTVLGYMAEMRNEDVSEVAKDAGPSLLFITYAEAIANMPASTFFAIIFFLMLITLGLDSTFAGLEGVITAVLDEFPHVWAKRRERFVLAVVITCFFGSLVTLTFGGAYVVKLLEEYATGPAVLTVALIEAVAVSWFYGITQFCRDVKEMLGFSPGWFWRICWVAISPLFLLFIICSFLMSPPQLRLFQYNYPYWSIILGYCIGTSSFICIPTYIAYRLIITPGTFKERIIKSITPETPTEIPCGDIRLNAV
T4 sequence (P31645 whole entry S559A): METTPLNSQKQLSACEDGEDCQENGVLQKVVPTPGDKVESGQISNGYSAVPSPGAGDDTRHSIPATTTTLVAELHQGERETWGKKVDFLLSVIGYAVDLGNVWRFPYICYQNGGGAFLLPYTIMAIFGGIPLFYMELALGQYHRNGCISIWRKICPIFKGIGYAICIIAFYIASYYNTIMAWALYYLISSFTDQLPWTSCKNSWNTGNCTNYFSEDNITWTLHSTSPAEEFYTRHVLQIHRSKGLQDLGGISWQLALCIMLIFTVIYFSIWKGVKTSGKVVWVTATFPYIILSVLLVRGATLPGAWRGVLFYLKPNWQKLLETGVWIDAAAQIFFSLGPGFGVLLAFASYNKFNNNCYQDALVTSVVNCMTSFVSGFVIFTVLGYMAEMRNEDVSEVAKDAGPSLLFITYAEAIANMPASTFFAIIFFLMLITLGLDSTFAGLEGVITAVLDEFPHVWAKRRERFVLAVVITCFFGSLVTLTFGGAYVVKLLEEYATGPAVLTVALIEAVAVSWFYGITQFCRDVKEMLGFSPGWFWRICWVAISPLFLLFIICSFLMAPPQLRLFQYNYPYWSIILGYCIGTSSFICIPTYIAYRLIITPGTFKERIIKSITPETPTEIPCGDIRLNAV
Chain of hSERT (P31645 whole entry): as the sequence (P31645 whole entry) above
T2 sequence (P31645 whole entry P560G): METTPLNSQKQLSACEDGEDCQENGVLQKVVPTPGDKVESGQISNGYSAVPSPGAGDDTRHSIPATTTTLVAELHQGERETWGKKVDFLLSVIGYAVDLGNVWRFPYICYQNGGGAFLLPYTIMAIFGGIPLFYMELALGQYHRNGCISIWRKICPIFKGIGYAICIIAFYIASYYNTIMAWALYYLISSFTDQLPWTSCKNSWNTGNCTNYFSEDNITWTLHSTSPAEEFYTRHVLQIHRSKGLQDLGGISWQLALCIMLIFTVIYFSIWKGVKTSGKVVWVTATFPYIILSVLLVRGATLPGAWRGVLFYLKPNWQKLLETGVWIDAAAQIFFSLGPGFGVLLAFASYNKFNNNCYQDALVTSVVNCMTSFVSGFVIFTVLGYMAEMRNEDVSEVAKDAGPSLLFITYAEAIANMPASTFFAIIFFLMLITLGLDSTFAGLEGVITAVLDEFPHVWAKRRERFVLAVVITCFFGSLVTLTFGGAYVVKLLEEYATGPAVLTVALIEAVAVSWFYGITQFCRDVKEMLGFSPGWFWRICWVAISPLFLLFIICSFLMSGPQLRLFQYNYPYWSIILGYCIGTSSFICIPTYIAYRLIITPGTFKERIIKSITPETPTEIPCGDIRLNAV
T6 sequence (P31645 whole entry L565A): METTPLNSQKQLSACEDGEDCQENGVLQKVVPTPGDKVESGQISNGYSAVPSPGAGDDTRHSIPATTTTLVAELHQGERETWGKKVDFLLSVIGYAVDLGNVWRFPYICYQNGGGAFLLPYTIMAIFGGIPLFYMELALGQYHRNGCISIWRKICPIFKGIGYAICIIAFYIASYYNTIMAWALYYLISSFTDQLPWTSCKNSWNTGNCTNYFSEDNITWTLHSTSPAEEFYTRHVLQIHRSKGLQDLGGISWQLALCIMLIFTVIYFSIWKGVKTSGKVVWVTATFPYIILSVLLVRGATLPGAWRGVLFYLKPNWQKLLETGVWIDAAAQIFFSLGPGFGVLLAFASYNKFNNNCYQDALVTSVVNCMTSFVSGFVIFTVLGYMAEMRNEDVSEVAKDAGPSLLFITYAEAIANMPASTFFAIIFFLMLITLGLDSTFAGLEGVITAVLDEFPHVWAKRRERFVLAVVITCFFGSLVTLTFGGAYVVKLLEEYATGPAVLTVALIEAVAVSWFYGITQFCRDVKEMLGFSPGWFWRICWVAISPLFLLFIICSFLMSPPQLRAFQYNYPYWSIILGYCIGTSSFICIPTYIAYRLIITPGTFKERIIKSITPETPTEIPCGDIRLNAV
T5 sequence (P31645 whole entry G498T): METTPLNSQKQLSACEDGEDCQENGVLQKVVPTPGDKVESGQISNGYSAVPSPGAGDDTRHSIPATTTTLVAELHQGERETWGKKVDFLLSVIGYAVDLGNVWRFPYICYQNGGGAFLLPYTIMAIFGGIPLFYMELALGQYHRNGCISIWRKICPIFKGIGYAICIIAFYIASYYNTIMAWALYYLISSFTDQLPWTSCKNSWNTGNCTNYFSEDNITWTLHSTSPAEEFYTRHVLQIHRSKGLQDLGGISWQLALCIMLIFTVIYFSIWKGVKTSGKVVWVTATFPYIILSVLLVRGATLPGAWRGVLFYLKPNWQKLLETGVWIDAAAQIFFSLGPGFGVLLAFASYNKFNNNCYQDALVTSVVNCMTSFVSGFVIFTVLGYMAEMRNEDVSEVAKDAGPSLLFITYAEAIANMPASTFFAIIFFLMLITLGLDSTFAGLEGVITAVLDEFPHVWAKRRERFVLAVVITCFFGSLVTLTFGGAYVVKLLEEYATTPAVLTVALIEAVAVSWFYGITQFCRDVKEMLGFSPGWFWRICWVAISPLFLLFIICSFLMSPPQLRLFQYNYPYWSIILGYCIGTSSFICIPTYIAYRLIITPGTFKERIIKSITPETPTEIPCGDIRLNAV
T1 sequence (P31645 whole entry I327A): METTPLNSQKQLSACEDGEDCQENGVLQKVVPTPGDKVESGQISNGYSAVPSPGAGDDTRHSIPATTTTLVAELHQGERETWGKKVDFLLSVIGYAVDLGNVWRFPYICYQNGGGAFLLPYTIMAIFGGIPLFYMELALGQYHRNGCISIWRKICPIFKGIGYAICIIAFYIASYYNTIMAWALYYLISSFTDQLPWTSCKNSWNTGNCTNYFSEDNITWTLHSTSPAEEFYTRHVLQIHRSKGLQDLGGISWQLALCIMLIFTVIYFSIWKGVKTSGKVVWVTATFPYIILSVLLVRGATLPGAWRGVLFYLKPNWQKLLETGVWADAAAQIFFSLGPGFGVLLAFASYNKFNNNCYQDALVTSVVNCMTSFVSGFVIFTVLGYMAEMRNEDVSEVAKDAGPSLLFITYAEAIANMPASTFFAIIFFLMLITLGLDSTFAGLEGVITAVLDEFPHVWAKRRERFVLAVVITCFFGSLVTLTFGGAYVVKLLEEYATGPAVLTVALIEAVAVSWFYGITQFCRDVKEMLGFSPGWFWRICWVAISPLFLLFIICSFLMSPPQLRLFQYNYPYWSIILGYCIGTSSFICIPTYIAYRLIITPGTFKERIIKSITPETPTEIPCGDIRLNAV
T7 sequence (P31645 whole entry R564A): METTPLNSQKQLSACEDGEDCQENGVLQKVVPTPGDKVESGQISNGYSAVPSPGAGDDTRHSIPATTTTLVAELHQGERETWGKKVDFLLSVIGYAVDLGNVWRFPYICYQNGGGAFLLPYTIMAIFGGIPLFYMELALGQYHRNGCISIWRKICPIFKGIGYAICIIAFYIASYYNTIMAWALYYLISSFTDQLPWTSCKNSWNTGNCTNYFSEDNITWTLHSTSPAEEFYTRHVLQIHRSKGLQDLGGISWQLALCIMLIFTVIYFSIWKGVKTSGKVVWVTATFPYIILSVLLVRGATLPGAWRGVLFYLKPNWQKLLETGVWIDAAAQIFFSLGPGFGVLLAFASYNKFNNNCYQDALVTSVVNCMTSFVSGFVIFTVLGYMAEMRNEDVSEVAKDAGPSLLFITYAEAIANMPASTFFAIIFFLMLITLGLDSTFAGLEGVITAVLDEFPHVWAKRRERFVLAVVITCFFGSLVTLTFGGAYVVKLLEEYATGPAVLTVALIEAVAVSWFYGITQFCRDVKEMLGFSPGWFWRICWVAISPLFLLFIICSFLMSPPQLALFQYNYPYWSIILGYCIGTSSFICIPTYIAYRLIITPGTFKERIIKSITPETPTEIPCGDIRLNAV

As for `COc1cc([C@@H]2OC[C@@H]3[C@H]2CO[C@H]3c2cc(OC)c(O)c(OC)c2)cc(OC)c1O` [SYR, (-)-syringaresinol], the IC50 in data set [1] was determined as 53.2 ± 7.01 µM; in data set [2] it was 14.7 ± 0.26 µM; in [4] (WT, APP^+ uptake, SYR added 5 min prior to APP^+, read-out: SYR IC50 for Transport), 0.25 ± 0.01 µM; in data set [6] it was 19.5 ± 1.46 µM; in [8], 40.5 ± 0.54 µM; in data set [10], 21 ± 0.45 µM. Moreover, the IC50 in data set [11] is 30.4 ± 1.42 µM. In data set [3], the “CUMS-induced decrease in expression of synaptic proteins in the hippocampus” value was “effectively alleviate”. Also, the “Vmax of APP^+ transport with addition of SYR” value in data set [4] ([…] SYR) is on record as 12.95 ± 1.52 AFU/min. Also, the “increase of inhibitory potency compared with SAG” value in data set [4] (compared with glycoside derivative SAG) is listed as “approximately 10 fold”. Further, the “mode of inhibition of APP^+ transport” value in data set [4] (decreased Vmax, little change in Km) is “noncompetitive inhibitor”. Besides, in [5], the fatality rate entry is listed as “zero fatality rate”. In [7], the “hSERT expression on the cell surface” value was “did not alter”. The “reversal of behavioral abnormalities in NSFT” value in [9] (5 mg/kg, i.p., once per day day 7 to 21) was “did not exhibit a significant response”. For the same molecule, in data set [9] (10 or 20 mg/kg (i.p.)), the “effect in NSFT” value was “remarkable antidepressant-like effects”.
